Source: patent publication US20120184562A1, “1,6- AND 1,8-NAPHTHYRIDINES” (priority 2011, published 2012)

Legend:
[1] = molecular target: T1, Human DYRK1B (Homo sapiens, UniProt Q9Y463); experiment: DYRK1B Kinase TR-FRET (IMAP-Tb) Assay; assay type: biochemical; conditions: for IC50: TR-FRET (IMAP-Tb), ATP 70 μM, 37° C., 60 minutes, average of multiple runs, read-out: Enzyme IC50 (μM) DYRK1B; for inhibition at 10 µM: % inhibition at 10 μM test compound concentration, where IC50 not determined
T1 construct: purchased Invitrogen PR8350B (former PV4649)
T1 sequence (Q9Y463 whole entry): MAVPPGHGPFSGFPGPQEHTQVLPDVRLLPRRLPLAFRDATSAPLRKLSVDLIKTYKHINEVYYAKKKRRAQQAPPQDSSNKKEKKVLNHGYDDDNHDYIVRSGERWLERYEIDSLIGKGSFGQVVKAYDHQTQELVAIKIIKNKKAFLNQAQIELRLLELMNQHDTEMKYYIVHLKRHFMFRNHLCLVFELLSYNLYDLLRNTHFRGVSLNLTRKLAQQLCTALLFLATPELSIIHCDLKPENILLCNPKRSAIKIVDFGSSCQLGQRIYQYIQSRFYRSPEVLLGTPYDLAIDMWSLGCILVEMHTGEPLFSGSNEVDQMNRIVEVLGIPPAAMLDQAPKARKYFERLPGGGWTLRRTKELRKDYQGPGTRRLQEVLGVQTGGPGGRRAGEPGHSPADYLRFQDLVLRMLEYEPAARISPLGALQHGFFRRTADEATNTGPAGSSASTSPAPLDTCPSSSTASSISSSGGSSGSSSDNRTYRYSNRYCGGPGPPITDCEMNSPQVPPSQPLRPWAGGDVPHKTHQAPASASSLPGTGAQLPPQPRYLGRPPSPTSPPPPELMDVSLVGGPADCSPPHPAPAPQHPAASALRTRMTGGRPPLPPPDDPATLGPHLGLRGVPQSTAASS
Text: DYRK1B Kinase TR-FRET (IMAP-Tb) Assay The kinase TR-FRET (IMAP-Tb) assay uses a fluorescence labeled substrate peptide in the kinase reaction. Upon phosphorylation by the kinase, phosphopeptide is produced, which will be detected by the binding solution provided in IMAP TR-FRET binding kit. After the completion of the kinase reaction, the reaction will be stopped by adding the binding solution containing terbium tracer. This tracer is immobilized on the surface of the IMAP beads, which also contain metal ions on the beads that bind to the phospho-groups of the products. Thus the phosphorylated product of the reaction can enter into close proximity to the tracer, producing resonance energy transfer. Due to the long lifetime of terbium (Tb) fluorescence the detection can be run in time resolved mode, which virtually eliminates fluorescence interference from assay components or compounds. The TR-FRET signal measurement from this assay, given as an IC50 measurement, is a measure of a test compound's ability to interfere with the phosphorylation of the peptide substrate, that is it inhibits the phosphorylation of the substrate peptide by DYRK1B, and is thus a measure of the test compound's ability to inhibit the activity of DYRK1B. […] Human DYRK1B: from Invitrogen. Part #PR8350B (former PV4649) • 2. Substrate Peptide: in-house synthesized: RRRFRPASPLRGPPK • 3. IMAP TR-FRET IPP Explorer Kit: from Molecular Devices. Part #R8157 • 4. Kinase Assay Buffer (KAB): 10 mM HEPES pH 7.0, 50 mM NaCl, 5 mM MgCl2, 1 mM DTT, 1 mM NaVO4, 200 μg/mL BSA (0.02%) • 5. Assay Plate: Remp polypropylene clear 384-well microplate. Cat#23490-102 • 6. Detection Plate: Costa black 384-well microplate. Cat #3710 Assay Procedure: This assay was performed as follows: • 1. Transfer 1.5 μL of 20× compound solution to each well of an assay plate. • 2. Add to each well 22.5 μL of KAB Buffer. • 3. Add to each well 3 μL of the solution of DYRK1B and ATP. […] Add to each well 3 μL of the substrate peptide. The assay concentration is 1.0 μM • 5. Incubate the assay plates at 37° C. for 60 minutes. • 6. Add 18 μL of Detection Solution (1:800 diluted Progress bead stock, 1:400 diluted Tb stock, 80% Buffer A, and 20% Buffer B) into each well of detection plates. • 7. Transfer 6 μL of assay solution from the assay plate to the detection plate. • 8. Shake detection plates for 30 minutes. • 9. Read plates in Envision with wavelength set at excitation 340 nm for Tb, emission 490 nm, and […] 520 nm. • 10. Calculation: TR-FRET Signal=(Reading at […]/Reading at 490 nM)×2000000

[2] = molecular target: T2, Human DYRK1A (Homo sapiens, UniProt Q13627); experiment: DYRK1A Kinase TR-FRET (IMAP-Tb) Assay; assay type: biochemical; conditions: for IC50: TR-FRET (IMAP-Tb), ATP 70 μM, 37° C., 60 minutes, average of multiple runs, read-out: Enzyme IC50 (μM) DYRK1A; for inhibition at 10 µM: % inhibition at 10 μM test compound concentration, where IC50 not determined, read-out: % inhibition DYRK1A (printed in the Enzyme IC50 DYRK1A column)
T2 construct: purchased Invitrogen PV3997
Text: DYRK1A Kinase TR-FRET (IMAP-Tb) Assay
The kinase TR-FRET (IMAP-Tb) assay uses a fluorescence labeled substrate peptide in the kinase reaction. Upon phosphorylation by the kinase, phosphopeptide is produced, which will be detected by the binding solution provided in IMAP TR-FRET binding kit. After the completion of the kinase reaction, the reaction will be stopped by adding the binding solution containing terbium tracer. This tracer is immobilized on the surface of the IMAP beads, which also contain metal ions on the beads that bind to the phospho-groups of the products. Thus the phosphorylated product of the reaction can enter into close proximity to the tracer, producing resonance energy transfer. Due to the long lifetime of terbium (Tb) fluorescence the detection can be run in time resolved mode, which virtually eliminates fluorescence interference from assay components or compounds.
The TR-FRET signal measurement from this assay, given as an IC50 measurement, is a measure of a test compound's ability to interfere with the phosphorylation of the peptide substrate, that is it inhibits the phosphorylation of the substrate peptide by DYRK1A, and is thus a measure of the test compound's ability to inhibit the activity of DYRK1A.
• 1. Human DYRK1A: from Invitrogen. Part #PV3997 • 2. Substrate Peptide: […] • 3. IMAP TR-FRET IPP Explorer Kit: from Molecular Devices. Part #R8157 • 4. Kinase Assay Buffer (KAB): 10 mM HEPES pH 7.0, 50 mM NaCl, 5 mM MgCl2, 1 mM DTT, 1 mM NaVO4, 200 μg/mL BSA (0.02%) • 5. Assay Plate: Remp polypropylene clear 384-well microplate. […] Detection Plate: Costa black 384-well microplate. […] Transfer 1.5 μL of 20× compound solution to each well of an assay plate. • 2. Add to each well 22.5 μL of KAB Buffer. • 3. Add to each well 3 μL of the solution of DYRK1A and ATP. […] Add to each well 3 μL of the substrate peptide. The assay concentration is 1.0 μM • 5. Incubate the assay plates at 37° C. for 60 minutes. • 6. Add 18 μL of Detection Solution (1:800 diluted Progress bead stock, 1:400 diluted Tb stock, 80% Buffer A, and 20% Buffer B) into each well of detection plates. • 7. Transfer 6 μL of assay solution from the assay plate to the detection plate. • 8. Shake detection plates for 30 minutes. • 9. Read plates in Envision with wavelength set at excitation 340 nm for Tb, emission 490 nm, and […].

In the case of `COc1ccc2cc(C(=O)Nc3cc(C(=O)NCc4ccccc4)ccc3Cl)c(=O)[nH]c2n1` [Example 94, N-(5-(Benzylcarbamoyl)-2-chlorophenyl)-7-methoxy-2-oxo-1,2-dihydro-1,8-naphthyridine-3-carboxamide], the IC50 [1] is reported as 0.079 µM and the IC50 [2] is reported as 0.05 µM.

`COC(=O)c1ccc(C)c(NC(=O)c2cc3cnc(N4CCN(C)CC4)cc3[nH]c2=O)c1` [Example 74, 4-Methyl-3-{[7-(4-methyl-piperazin-1-yl)-2-oxo-1,2-dihydro-[1,6]naphthyridine-3-carbonyl]-amino}-benzoic acid methyl ester] was tested, and the IC50 [1] was 3.55 µM and the IC50 [2] was 0.96 µM.

For `COC(=O)c1ccc(C)c(NC(=O)c2cc3ccc(N4CCN(C)CC4)nc3[nH]c2=O)c1` [Example 87, 4-Methyl-3-{[7-(4-methyl-piperazin-1-yl)-2-oxo-1,2-dihydro-[1,8]naphthyridine-3-carbonyl]-amino}-benzoic acid methyl ester], the IC50 [1] was 1.31 µM and the IC50 [2] was 0.915 µM.

With `COc1cc2[nH]c(=O)c(C(=O)Nc3cc(C(=O)NCc4ccc(Cl)cc4)ccc3Cl)cc2cn1` [Example 41, 7-Methoxy-2-oxo-1,2-dihydro-[1,6]naphthyridine-3-carboxylic acid [2-chloro-5-(4-chloro-benzylcarbamoyl)-phenyl]-amide] the IC50 [1] was > 10 µM and the IC50 [2] was > 10 µM.

`COc1ccc2cc(C(=O)Nc3cc(C(=O)NC(CCN)c4ccccc4)ccc3C)c(=O)[nH]c2n1` (centres unmarked) [Example 100, N-(5-(3-Amino-1-phenylpropylcarbamoyl)-2-methylphenyl)-7-methoxy-2-oxo-1,2-dihydro-1,8-naphthyridine-3-carboxamide] was tested, and the IC50 [1] was 0.0158 µM and the IC50 [2] was 0.0162 µM.

Molecule `COC(=O)c1ccc(C)c(NC(=O)c2cc3ccc(OC)nc3[nH]c2=O)c1` [Example 89, 3-[(7-Methoxy-2-oxo-1,2-dihydro-[1,8]naphthyridine-3-carbonyl)-amino]-4-methyl-benzoic acid methyl ester] has an inhibition at 10 µM [1] of 47% and an IC50 [2] of 0.125 µM.

Molecule `COc1cc2[nH]c(=O)c(C(=O)Nc3cc(C(=O)NCc4cccc(Cl)c4)ccc3C)cc2cn1` [Example 35, 7-Methoxy-2-oxo-1,2-dihydro-[1,6]naphthyridine-3-carboxylic acid [5-(3-chloro-benzylcarbamoyl)-2-methyl-phenyl]-amide] has an inhibition at 10 µM [1] of 35% and an inhibition at 10 µM [2] of 45%.

With `COC(=O)c1ccc(C)c(NC(=O)c2cc3cnc(OC)cc3[nH]c2=O)c1` [Example 28, 3-[(7-Methoxy-2-oxo-1,2-dihydro-[1,6]naphthyridine-3-carbonyl)-amino]-4-methyl-benzoic acid methyl ester] the IC50 [1] was > 10 µM and the inhibition at 10 µM [2] was 24%.

In the case of `COc1cc2[nH]c(=O)c(C(=O)Nc3cc(C(=O)NCc4ccccc4Cl)ccc3Cl)cc2cn1` [Example 39, 7-Methoxy-2-oxo-1,2-dihydro-[1,6]naphthyridine-3-carboxylic acid [2-chloro-5-(2-chloro-benzylcarbamoyl)-phenyl]-amide], the IC50 [1] is reported as 7.22 µM and the IC50 [2] is reported as 0.63 µM.

`COc1cc2[nH]c(=O)c(C(=O)Nc3cc(C(=O)NCc4ccccc4Cl)ccc3C)cc2cn1` [Example 34, 7-Methoxy-2-oxo-1,2-dihydro-[1,6]naphthyridine-3-carboxylic acid [5-(2-chloro-benzylcarbamoyl)-2-methyl-phenyl]-amide] showed an inhibition at 10 µM [1] of 28% and an inhibition at 10 µM [2] of 45%.

For `COc1ccc2cc(C(=O)Nc3cc(C(=O)NCc4ccccc4)ccc3C)c(=O)[nH]c2n1` [Example 98, N-(5-(Benzylcarbamoyl)-2-methylphenyl)-7-methoxy-2-oxo-1,2-dihydro-1,8-naphthyridine-3-carboxamide], the IC50 [1] was 0.69 µM and the IC50 [2] was 0.79 µM.

`COc1cc2[nH]c(=O)c(C(=O)Nc3cc(C(=O)NCc4ccccc4)ccc3Cl)cc2cn1` [Example 32, 7-Methoxy-2-oxo-1,2-dihydro-[1,6]naphthyridine-3-carboxylic acid (5-benzylcarbamoyl-2-chloro-phenyl)-amide] gave an inhibition at 10 µM [1] of 19% and an inhibition at 10 µM [2] of 23%.

`COc1cc2[nH]c(=O)c(C(=O)Nc3cc(C(=O)NCc4cccs4)ccc3Cl)cc2cn1` [Example 42, 7-Methoxy-2-oxo-1,2-dihydro-[1,6]naphthyridine-3-carboxylic acid {2-chloro-5-[(thiophen-2-ylmethyl)-carbamoyl]-phenyl}-amide] gave an inhibition at 10 µM [1] of 41% and an inhibition at 10 µM [2] of 27%.

In the case of `COc1cc2[nH]c(=O)c(C(=O)Nc3cc(C(=O)NCc4ccc(Cl)cc4)ccc3C)cc2cn1` [Example 36, 7-Methoxy-2-oxo-1,2-dihydro-[1,6]naphthyridine-3-carboxylic acid [5-(4-chloro-benzylcarbamoyl)-2-methyl-phenyl]-amide], the IC50 [1] is reported as > 10 µM and the IC50 [2] is reported as > 10 µM.

`COc1cc2[nH]c(=O)c(C(=O)Nc3cc(C(=O)NCc4cccc(Cl)c4)ccc3Cl)cc2cn1` [Example 40, 7-Methoxy-2-oxo-1,2-dihydro-[1,6]naphthyridine-3-carboxylic acid [2-chloro-5-(3-chloro-benzylcarbamoyl)-phenyl]-amide] showed an IC50 [2] of 0.051 µM.
